This is an account of results in patent US11116778B2, “Prodrugs of ALOX-15 inhibitors and methods of using the same” (EMPIRICO INC., priority 2019, dated 2021).

One data set concerns the target T1, alkaline phosphatase (Bos taurus, UniProt P19111).
T1 construct: purchased EMD Millipore 524572
In words: in vitro. The data set is classed as in vitro ADME, Calf. Particulars: calf (bovine), pH 8.8. The procedure: To determine if there was effect of addition phosphatase to the phosphate, 30 units of alkaline phosphatase (EMD Millipore Phosphatase, Alkaline, Calf Intestine catalog number 524572) was added to compound 5 and the UV spectrum (210-600 nm) was measured before and after addition of phosphatase. The was a shift in the absorbance maximum from 250 to 260 nm. The ratio of 250/260 went from 0.924 to 1.067 after phosphatase treatment.
Phosphatase treatment was repeated with 0.1 unit of phosphatase (56 ug) and 0.6 mM compound 5 at a volume of 100 uL (100 mM Tris pH 8.8, 5 mM MgCl2) and monitored as function of time. […] A unit is defined as the amount that can hydrolyze 1 μmol/min of p-nitrophenyl phosphate (PNP). Meaning that 0.1 unit of enzyme was hydrolyzing 0.015 units of phosphate: a ˜6.6 fold decrease in activity relative to PNP.

In data set [1] the test system is POSTN mRNA. In words: POSTN mRNA by RT-qPCR in human nasal epithelial primary cells. Particulars: 5 μM or 1 μM, 3 x 24 hours with 20 ng/mL IL-13. The data set is classed as cell-based. The procedure: Human nasal epithelial primary cells (HNEpC) (PromoCell GmbH, Heidelberg, Germany) were cultured according to the manufacturer in provided Primary Cell media in 24 well plates at a density of 25,000 cells per well. Cells were treated with 5 μM or 1 μM of compound 5 or vehicle only (water) in media containing 20 ng/mL IL-13 for 24 hours in a 37° C. cell culture incubator. The following day, media was replaced and fresh media containing 20 ng/mL IL-13 and compound 5 or vehicle was added to each well, then incubated again for 24 hours in a 37° C. cell culture incubator. The process was repeated once more for a 24-hour period.
ALOX15 and POSTN mRNA levels were measured by RT-qPCR. […] The level of ALOX15 mRNA from each sample was measured in triplicate by real-time qPCR on an Applied Biosystems 7500 Fast Real-Time PCR machine using the TaqMan Gene Expression Assay for human ALOX15 (ThermoFisher, assay #Hs00993765_g1). The level of PPIA mRNA was measured in biplex reactions using TaqMan Gene Expression Assay (ThermoFisher, assay #Hs99999904_ml) and used to determine relative ALOX15 mRNA levels in each well using the delta-delta Ct method. […] Relative POSTN mRNA levels were measured as above using TaqMan Gene Expression Assay specific for human POSTN mRNA (ThermoFisher, assay #Hs00170815_m1). […]

Another data set deals with ALOX15 mRNA. In words: ALOX15 mRNA by RT-qPCR in rabbit nasal mucosa. The settings on record: rostral and caudal regions; rabbits, compound 5 10 mM intranasal. Format: in vivo. As to the method:
(§1) Six (6) female NZW rabbits were employed in this study. Rabbits were obtained from Covance (Denver Pa.). Rabbits were between approximately 10 and 12 months of age at the time of study start. At time point 0, all animals received 50 μL of solution containing rabbit IL4 (RND Systems/Biotechne) and human IL13 (PreproTech) at a concentration of 0.25 mg/mL each in 0.5×PBS containing 12.5 mg/mL BSA per nostril. This was administered intranasally via a venous catheter attached to a micropipette. The animal was positioned in a supine manner and the venous catheter inserted into the nostril. The volume was introduced into the nasal cavity and the same procedure was repeated with the other nostril. […]
(§2) Relative ALOX15 and POSTN mRNA levels in nasal mucosa were measured by RT-qPCR. […] The level of ALOX15 or POSTN mRNA from each sample was measured in triplicate by real-time qPCR on an Applied Biosystems 7500 Fast Real-Time PCR machine using the TaqMan Gene Expression Assay for rabbit ALOX15 (ThermoFisher, assay #Oc03823548_s1). The level of GAPDH mRNA was measured in biplex reactions using TaqMan Gene Expression Assay (ThermoFisher, assay #Oc03823402_g1) and used to determine relative ALOX15 mRNA levels in each well using the delta-delta Ct method. […] Relative POSTN mRNA levels were measured as above using TaqMan Gene Expression Assay specific for rabbit POSTN mRNA (ThermoFisher, assay #Oc06804808_s1). […]
A general note: Real-time PCR tracks product formation cycle by cycle.

Data set [2] relates to POSTN mRNA. Kind of data set: POSTN mRNA by RT-qPCR in rabbit nasal mucosa. Format: in vivo. The settings on record: rostral and caudal regions; rabbits, compound 5 10 mM intranasal. As to the method:
as §1, §2

T1 sequence (P19111 20-506): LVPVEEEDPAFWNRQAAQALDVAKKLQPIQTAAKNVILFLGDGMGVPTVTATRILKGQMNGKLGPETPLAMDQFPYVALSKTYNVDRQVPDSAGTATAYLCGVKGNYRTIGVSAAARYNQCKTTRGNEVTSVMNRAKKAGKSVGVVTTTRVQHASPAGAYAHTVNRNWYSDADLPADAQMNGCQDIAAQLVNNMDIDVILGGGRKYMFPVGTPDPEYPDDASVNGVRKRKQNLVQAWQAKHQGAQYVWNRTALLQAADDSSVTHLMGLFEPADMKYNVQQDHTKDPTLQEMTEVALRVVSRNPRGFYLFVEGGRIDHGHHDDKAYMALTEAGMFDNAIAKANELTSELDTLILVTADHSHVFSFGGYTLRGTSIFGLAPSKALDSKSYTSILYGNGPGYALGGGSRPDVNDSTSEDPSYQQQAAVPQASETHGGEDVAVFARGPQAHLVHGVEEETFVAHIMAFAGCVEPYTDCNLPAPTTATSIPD

Broadly, the half-life is the time needed for the level to fall by half in the phase considered. Higher therefore signals slow loss. The compound `O=C(Nc1ccc(F)cc1Cl)c1nn(COP(=O)(O)O)c(Cl)c1Cl` [compound 5, (4,5-dichloro-3-((2-chloro-4-fluorophenyl)carbamoyl)-1H-pyrazol-1-yl)methyl dihydrogen phosphate] had a half-life at 0.6 mM on alkaline phosphatase of 2 min. For the same compound, the “relative level of POSTN mRNA versus vehicle (FIG. 7)” value in the data set with POSTN mRNA [1] was “lower”. In the data set on ALOX15 mRNA, the “relative level of ALOX15 mRNA in nasal mucosa versus vehicle (FIG. 11)” value is “lower”. For the same compound, in the data set with POSTN mRNA [2], the “relative level of POSTN mRNA in nasal mucosa versus vehicle (FIG. 11)” value is “lower”.
